In patent US4459290A, “C-23-Modified derivatives of OMT, pharmaceutical compositions and method of use” (priority 1982, dated 1984):
Converted amounts (≈) assume the structure as drawn. Where two headings read alike, the source gives them in different places.

Key:
[1] = system: Klebsiella pneumoniae X26; assay: MIC, standard agar-dilution assay (Table V); format: cell-based; details: Klebsiella pneumoniae, X26
Protocol: (§1) Especially noteworthy is the improved activity against gram-negative bacteria for several derivatives when compared to the activity of OMT. […] The MIC's in Tables V and VI were determined by standard agar-dilution assays. The MIC's in Table VII were obtained using a conventional broth-dilution microtiter test.

[2] = system: Staphylococcus aureus X400; assay: MIC, standard agar-dilution assay (Table V); format: cell-based; details: Staphylococcus aureus, X400
Protocol: as §1

[3] = system: Haemophilus influenzae Holt; assay: MIC, standard agar-dilution assay (Table V); format: cell-based; details: Haemophilus influenzae
Protocol: (§2) The MIC's in Tables V and VI were determined by standard agar-dilution assays. The MIC's in Table VII were obtained using a conventional broth-dilution microtiter test.

[4] = system: Haemophilus influenzae R252; assay: MIC, standard agar-dilution assay (Table V); format: cell-based; details: Haemophilus influenzae, R252
Protocol: as §2

[5] = system: Streptococcus pyogenes C203; assay: MIC, standard agar-dilution assay (Table V); format: cell-based; details: Streptococcus pyogenes, C203
Protocol: as §2

[6] = system: Citrobacter freundii CF17; assay: MIC, standard agar-dilution assay (Table VI); format: cell-based; details: CF17
Protocol: as §1

[7] = system: Enterobacter aerogenes C32; assay: MIC, standard agar-dilution assay (Table VI); format: cell-based; details: Klebsiella aerogenes, C32
Protocol: as §1

[8] = system: Enterobacter aerogenes EB17; assay: MIC, standard agar-dilution assay (Table VI); format: cell-based; details: Klebsiella aerogenes, EB17
Protocol: as §1

Enterobacter cloacae EB5 = assay: MIC, standard agar-dilution assay (Table VI); format: cell-based; details: EB5
Protocol: as §1

[9] = system: Klebsiella pneumoniae X68; assay: MIC, standard agar-dilution assay (Table VI); format: cell-based; details: X68
Protocol: as §1

Proteus inconstans PR33 = assay: MIC, standard agar-dilution assay (Table VI); format: cell-based; details: Providencia alcalifaciens, PR33
Protocol: as §1

Proteus morganii PR15 = assay: MIC, standard agar-dilution assay (Table VI); format: cell-based; details: Morganella morganii, PR15
Protocol: as §1

Proteus rettgeri C24 = assay: MIC, standard agar-dilution assay (Table VI); format: cell-based; details: Providencia rettgeri, P. rettgeri C24
Protocol: as §1

Proteus rettgeri PR7 = assay: MIC, standard agar-dilution assay (Table VI); format: cell-based; details: Providencia rettgeri; P. rettgeri PR7; agar dilution; read-out: MIC
Protocol: as §1

[10] = system: Pseudomonas aeruginosa Ps18; assay: MIC, standard agar-dilution assay (Table VI); format: cell-based; details: PS18
Protocol: as §1

[11] = system: Pseudomonas aeruginosa X239; assay: MIC, standard agar-dilution assay (Table VI); format: cell-based; details: X239
Protocol: as §1

[12] = system: Pseudomonas aeruginosa X528; assay: MIC, standard agar-dilution assay (Table VI); format: cell-based; details: X528
Protocol: as §1

[13] = system: Salmonella heidelberg X514; assay: MIC, standard agar-dilution assay (Table VI); format: cell-based; details: Salmonella enterica, X514
Protocol: as §1

Salmonella typhi 1335 = assay: MIC, standard agar-dilution assay (Table VI); format: cell-based; details: Salmonella enterica
Protocol: as §1

Serratia marcescens SE3 = assay: MIC, standard agar-dilution assay (Table VI); format: cell-based; details: SE3
Protocol: as §1

Serratia marcescens X99 = assay: MIC, standard agar-dilution assay (Table VI); format: cell-based; details: X99
Protocol: as §1

Mycoplasma gallisepticum = assay: MIC, broth-dilution microtiter test (Table VII); format: cell-based; details: Mycoplasmoides gallisepticum
Protocol: as §1

Mycoplasma hyorhinis = assay: MIC, broth-dilution microtiter test (Table VII); format: cell-based; details: M. hyorhinis; broth-dilution microtiter; read-out: MIC
Protocol: as §1

Mycoplasma synoviae = assay: MIC, broth-dilution microtiter test (Table VII); format: cell-based; details: Mycoplasmopsis synoviae; M. synoviae; broth-dilution microtiter; read-out: MIC
Protocol: as §1

[14] = system: Pasteurella hemolytica 22C; assay: MIC, broth-dilution microtiter test (Table VII); format: cell-based; details: Pasteurella, P. hemolytica 22C, read-out: MIC
In short: (§3)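 Broth microdilution, run as a conventional microtiter test, supplied MICs for the gram-positive S. aureus and the Pasteurella isolates. Enterobacter data instead rest on a standard agar-dilution procedure.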

[15] = system: Pasteurella hemolytica 23C; assay: MIC, broth-dilution microtiter test (Table VII); format: cell-based; details: Pasteurella, P. hemolytica 23C, read-out: MIC
In short: as §3

[16] = system: Pasteurella hemolytica 41D; assay: MIC, broth-dilution microtiter test (Table VII); format: cell-based; details: Pasteurella, P. hemolytica 41D, read-out: MIC
In short: as §3

[17] = system: Pasteurella multocida 17E; assay: MIC, broth-dilution microtiter test (Table VII); format: cell-based; details: Pasteurella multocida; P. multocida 17E, bovine isolate; broth-dilution microtiter; read-out: MIC
In short: (§4)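 Serial compound dilutions were incorporated into agar for testing E. aerogenes. Dilutions in broth, arranged in microtiter wells, were used for S. aureus and P. multocida.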

[18] = system: Pasteurella multocida 22A; assay: MIC, broth-dilution microtiter test (Table VII); format: cell-based; details: Pasteurella multocida; P. multocida 22A; broth-dilution microtiter; read-out: MIC
In short: as §4

[19] = system: Pasteurella multocida 40G; assay: MIC, broth-dilution microtiter test (Table VII); format: cell-based; details: Pasteurella multocida; P. multocida 40G; broth-dilution microtiter; read-out: MIC
In short: as §4

[20] = system: Pasteurella multocida 60A; assay: MIC, broth-dilution microtiter test (Table VII); format: cell-based; details: Pasteurella multocida; P. multocida 60A, avian isolate; broth-dilution microtiter; read-out: MIC
In short: as §4

[21] = system: Pasteurella multocida 68C; assay: MIC, broth-dilution microtiter test (Table VII); format: cell-based; details: Pasteurella multocida; P. multocida 68C; broth-dilution microtiter; read-out: MIC
In short: as §4

Staphylococcus aureus = assay: MIC, broth-dilution microtiter test (Table VII); format: cell-based; details: Staphylococcus aureus
In short: as §4

Streptococcus sp. 80 = assay: MIC, broth-dilution microtiter test (Table VII); format: cell-based; details: Streptococcus, SP.80
Protocol: as §1

[22] = system: Streptococcus pyogenes C203; assay: ED50 in mice experimentally infected with S. pyogenes C203 (Table VIII); format: in vivo
Protocol: The C-23 modified derivatives of OMT of this invention have shown in vivo antimicrobial activity against experimental infections. When two doses of test compound were administered to mice experimentally infected with a gram-positive bacterium, S. pyogenes C203, the activity observed was measured as an ED50 value [effective dose in mg/kg to protect 50% of the test animals: see Warren Wick, et al., J. Bacteriol. 81, 233-235 (1961)].

SMILES: CCC1OC(=O)CC(O)C(C)C(OC2OC(C)C(O)C(N(C)C)C2O)C(CC=O)CC(C)C(=O)C=CC(C)=CC1CSc1nnnn1C (stereo not drawn) [Compound 5, 23-Deoxy-23-(1-methyltetrazol-5-yl)thio-OMT]
- MIC [1]: 4 µg/mL (≈ 5.75 µM)
- MIC [2]: 0.5 µg/mL (≈ 0.719 µM)
- MIC [3]: 4 µg/mL (≈ 5.75 µM)
- MIC [4]: 2 µg/mL (≈ 2.87 µM)
- MIC [5]: 0.25 µg/mL (≈ 0.359 µM)
- MIC [6]: > 128 µg/mL
- MIC [7]: > 128 µg/mL
- MIC [8]: > 128 µg/mL
- MIC (Enterobacter cloacae EB5): > 128 µg/mL
- MIC [9]: > 128 µg/mL
- MIC (Proteus inconstans PR33): > 128 µg/mL
- MIC (Proteus morganii PR15): > 128 µg/mL
- MIC (Proteus rettgeri C24): 64 µg/mL (≈ 92 µM)
- MIC (Proteus rettgeri PR7): 64 µg/mL (≈ 92 µM)
- MIC [10]: > 128 µg/mL
- MIC [11]: > 128 µg/mL
- MIC [12]: 64 µg/mL (≈ 92 µM)
- MIC [13]: > 128 µg/mL
- MIC (Salmonella typhi 1335): > 128 µg/mL
- MIC (Serratia marcescens SE3): > 128 µg/mL
- MIC (Serratia marcescens X99): > 128 µg/mL
- MIC (Mycoplasma gallisepticum): 1.56 µg/mL (≈ 2.24 µM)
- MIC (Mycoplasma hyorhinis): 6.25 µg/mL (≈ 8.98 µM)
- MIC (Mycoplasma synoviae): 0.78 µg/mL (≈ 1.12 µM)
- MIC [14]: 12.5 µg/mL (≈ 18 µM)
- MIC [15]: 12.5 µg/mL (≈ 18 µM)
- MIC [16]: 12.5 µg/mL (≈ 18 µM)
- MIC [17]: 6.25 µg/mL (≈ 8.98 µM)
- MIC [18]: 6.25 µg/mL (≈ 8.98 µM)
- MIC [19]: 3.12 µg/mL (≈ 4.48 µM)
- MIC [20]: 6.25 µg/mL (≈ 8.98 µM)
- MIC [21]: 6.25 µg/mL (≈ 8.98 µM)
- MIC (Staphylococcus aureus): 1.56 µg/mL (≈ 2.24 µM)
- MIC (Streptococcus sp. 80): 1.56 µg/mL (≈ 2.24 µM)
- ED50 ([22]; C203, po, read-out: ED50, Oral): > 100 mg/kg
- ED50 ([22]; C203, sc, mice, subcutaneous, doses given 1 and 4 hours postinfection, read-out: ED50, Subcutaneous): 13.7 mg/kg
